Experimental data as given in publication PMC9785202, “Changes in Disposition of Ezetimibe and Its Active Metabolites Induced by Impaired Hepatic Function: The Influence of Enzyme and Transporter Activities” (Pharmaceutics, 2022).
Where two headings read alike, the source gives them in different places.

Tests used:
[1] = Pharmacokinetics after intravenous or oral administration of 10 mg/kg EZE to control and CCl4-induced rats; type: in vivo; details: for AUC(0-t) / Cmax / Tmax / half-life / Cmax at 5 min: Sprague-Dawley, rat, plasma, 10 mg/kg; for Cmax at 5 min: read-out: Cmax (* plasma concentration at 5 min after intravenous injection)
Description: Animals were fasted for 12 h with free access to water before the experiments. EZE was administered orally (prepared in 0.5% carboxymethylcellulose sodium) or intravenously (dissolved in 10% dimethyl sulfoxide, 10% tween-80, and 80% sterile H2O) to CCl4-induced rats (n = 5) and control rats (n = 5) at 10 mg/kg. Blood samples were collected from the retro-orbital venous plexus before administration (0 h), at 5, 15, and 30 min, and at 1, 2, 4, 6, 8, 12, 24, and 48 h after administration in tubes containing EDTA-2K. Plasma samples were harvested by centrifugation at 11,600 g for 5 min at 4 °C and then stored at −80 °C until further analysis.
(§1) A 25.0 μL aliquot of each sample and 25.0 μL of internal standard (50.0 ng/mL EZE-d4) were mixed with 100 μL of acetonitrile. After the samples were vortexed and centrifugated at 2250 g for 15 min, the supernatants were used to measure EZE and its metabolites by LC-MS/MS.
(§2) WinNonlin version 6.1 (Pharsight Corp., Cary, NC, USA) was used to calculate the pharmacokinetic parameters in a non-compartmental model. Statistical comparisons between the two groups were evaluated using a Student’s two-tailed unpaired t-test or the nonparametric Mann–Whitney test in GraphPad Prism (version 8.0, GraphPad Software Inc, SanDiego, CA, USA). A value of p < 0.05 was considered significant. All data were presented as the mean ± S.D. (n ≥ 3).

[2] = Portal vein and femoral vein plasma pharmacokinetics after oral EZE; type: in vivo, rats; details: oral 10 mg/kg EZE; for AUC(0-t): Sprague-Dawley, rat, po, 10 mg/kg
Description: To investigate changes due to the first-pass metabolism and biliary excretion during liver disease, CCl4-induced rats (n = 5) and control rats (n = 5) were anesthetized and the hepatic portal and femoral veins were cannulated with PE-50 polyethylene tubing. EZE was orally administered to rats at 10 mg/kg. Blood samples were collected simultaneously from the hepatic portal and femoral veins before administration (0 h), at 5, 15, and 30 min, and at 1, 2, 4, 6, 8, 12, 24, and 48 h after administration. Plasma samples were harvested as previously described.
as §1, §2

[3] = test system: UGTs; assay: Incubation of EZE with liver S9 fractions of control and CCl4-induced rats (glucuronidation); type: in vitro ADME, rat; details: 60 min
Description: One portion of the rat liver tissue was homogenized in a 5-fold volume of ice-cold phosphate buffer (including 250 mM sucrose, 10 mM Tris-HCl, and 1 mM EDTA-2Na, pH 7.4) and centrifugated at 9000 g for 20 min. After centrifugation, the supernatant was collected as the S9 fraction and stored at −80 °C.
To evaluate the effect of hepatic impairment on the hepatic metabolism of EZE, 0.3 μM, 3 μM, and 30 μM EZE were incubated with rat liver S9 fractions (2 mg of protein/mL) at 37 °C for 60 min in the Tris-HCl-buffered system (100 mM, pH 7.4), consisting of UDPGA (1 mM), MgCl2 (10 mM), and alamethicin (25 μg/mL). To investigate the effect of bile acids on the metabolism of EZE in the liver, 3 μM EZE was incubated with rat or human liver S9 fractions (2 mg of protein/mL) at 37 °C for 60 min in the Tris-HCl-buffered system with or without bile acids at 1, 10, and 100 μM. The total volume of the incubation system was 100 μL. The reactions were terminated by adding 100 μL of ice-cold acetonitrile. Samples were stored at −20 °C until analysis. EZE and EZE-Ph were detected by liquid chromatography with tandem mass spectrometry (LC-MS/MS).

[4] = test system: rat primary hepatocytes; assay: Uptake of EZE and EZE-Ph by rat primary hepatocytes; type: in vitro ADME; details: 10 μM, 10 min
Description: Rat primary hepatocytes were isolated from male SD rats as previously described [34]. Fresh rat hepatocytes (120,000 per well) were cultured in Williams’ E medium (containing 0.1 μM dexamethasone, 5% fetal bovine serum, 1% penicillin G/streptomycin, 1% GlutaMAX-I, and 1% insulin–transferrin–selenium) on collagen I-coated 48-well plates. Rat hepatocytes cultured for 4 h under a carbogen atmosphere were directly used for uptake assays.
The hepatocytes were rinsed three times with HBSS (37 °C) and equilibrated in HBSS for 10 min. […] After 10 min of incubation, cells were quickly washed three times with ice-cold HBSS and then lysed by the addition of 300 μL of purified water. The protein content was measured using the BCA protein assay kit. EZE and EZE-Ph were analyzed by LC-MS/MS.
The rates of substrate uptake were normalized using the protein contents of cell lysates.

[5] = biological target: T1, MDR1 (Homo sapiens, UniProt P08183); assay: Transport study with MDR1-expressing membrane vesicles; type: in vitro ADME; details: 10 μM, 10 min
T1 construct: purchased GenoMembrane Co., Ltd. (Yokohama, Japan); host or cells: Sf9 insect cells
T1 sequence (P08183 whole entry): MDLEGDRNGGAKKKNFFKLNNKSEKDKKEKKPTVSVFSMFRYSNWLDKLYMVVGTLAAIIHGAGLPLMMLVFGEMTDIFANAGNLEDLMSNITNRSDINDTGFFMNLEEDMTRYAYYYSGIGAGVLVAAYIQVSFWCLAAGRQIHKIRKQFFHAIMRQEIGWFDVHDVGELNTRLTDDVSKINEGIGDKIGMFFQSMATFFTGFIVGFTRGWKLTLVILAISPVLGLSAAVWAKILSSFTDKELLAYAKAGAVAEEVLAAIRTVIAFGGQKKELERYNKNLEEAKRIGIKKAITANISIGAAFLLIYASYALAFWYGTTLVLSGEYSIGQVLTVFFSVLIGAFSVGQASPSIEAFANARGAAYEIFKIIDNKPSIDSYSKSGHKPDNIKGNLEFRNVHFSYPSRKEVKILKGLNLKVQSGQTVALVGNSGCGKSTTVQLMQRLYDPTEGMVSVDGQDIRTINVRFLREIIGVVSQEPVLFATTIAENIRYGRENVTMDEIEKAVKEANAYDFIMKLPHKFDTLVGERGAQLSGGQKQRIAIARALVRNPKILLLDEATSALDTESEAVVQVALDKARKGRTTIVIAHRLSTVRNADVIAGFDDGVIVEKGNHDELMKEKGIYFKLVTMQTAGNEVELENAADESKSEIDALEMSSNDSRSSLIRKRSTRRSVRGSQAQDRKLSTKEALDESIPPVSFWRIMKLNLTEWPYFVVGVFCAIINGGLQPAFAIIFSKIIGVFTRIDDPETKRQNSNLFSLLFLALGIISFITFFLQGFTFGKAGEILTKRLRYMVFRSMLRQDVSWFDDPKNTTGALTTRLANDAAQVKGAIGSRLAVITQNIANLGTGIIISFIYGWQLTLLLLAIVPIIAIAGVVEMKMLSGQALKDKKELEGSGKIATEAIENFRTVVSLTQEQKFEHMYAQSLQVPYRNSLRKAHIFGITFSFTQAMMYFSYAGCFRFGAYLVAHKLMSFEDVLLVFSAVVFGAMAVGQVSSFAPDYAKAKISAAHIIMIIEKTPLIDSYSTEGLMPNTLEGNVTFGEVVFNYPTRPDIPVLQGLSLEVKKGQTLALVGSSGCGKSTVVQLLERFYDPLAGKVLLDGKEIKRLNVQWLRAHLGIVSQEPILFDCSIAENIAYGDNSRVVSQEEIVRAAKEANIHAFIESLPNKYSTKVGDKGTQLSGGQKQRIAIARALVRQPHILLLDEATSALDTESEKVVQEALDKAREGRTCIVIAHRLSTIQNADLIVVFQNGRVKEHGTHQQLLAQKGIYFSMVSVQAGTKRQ
Description: (§3) Human MDR1-, MRP2-, and MRP3-expressing membrane vesicles isolated from Sf9 insect cells were sourced from GenoMembrane Co., Ltd. (Yokohama, Japan).
(§4) In transport studies, a modified rapid filtration technique was used according to the manufacturer’s protocol (GenoMembrane Co.). The uptake of test compounds (10 μM EZE or EZE-Ph) into membrane vesicles (100 μg protein/100 μL) was conducted with or without 4 mM ATP in the transport medium (50 μL, pH 7.4), which included 50 mM MOPS-Tris, 70 mM KCl, and 7.5 mM MgCl2. The vesicular transport was terminated after 10 min by adding 200 μL of ice-cold stop buffer containing 40 mM MOPS-Tris and 70 mM KCl. The stopped incubate was quickly transferred to a 96-well glass fiber filter plate (Millipore, MA, USA) and washed five times with ice-cold stop buffer. The EZE and EZE-Ph inside the vesicles were released by adding 200 μL of methanol–water (70:30, v/v) and analyzed by LC-MS/MS. The ATP-dependent transport was evaluated based on the ratio of transport with ATP to that without ATP.

[6] = biological target: T2, MRP2 (Homo sapiens, UniProt Q92887); assay: Transport study with MRP2-expressing membrane vesicles; type: in vitro ADME; details: 10 μM, 10 min
T2 construct: purchased GenoMembrane Co., Ltd. (Yokohama, Japan); host or cells: Sf9 insect cells
T2 sequence (Q92887 whole entry): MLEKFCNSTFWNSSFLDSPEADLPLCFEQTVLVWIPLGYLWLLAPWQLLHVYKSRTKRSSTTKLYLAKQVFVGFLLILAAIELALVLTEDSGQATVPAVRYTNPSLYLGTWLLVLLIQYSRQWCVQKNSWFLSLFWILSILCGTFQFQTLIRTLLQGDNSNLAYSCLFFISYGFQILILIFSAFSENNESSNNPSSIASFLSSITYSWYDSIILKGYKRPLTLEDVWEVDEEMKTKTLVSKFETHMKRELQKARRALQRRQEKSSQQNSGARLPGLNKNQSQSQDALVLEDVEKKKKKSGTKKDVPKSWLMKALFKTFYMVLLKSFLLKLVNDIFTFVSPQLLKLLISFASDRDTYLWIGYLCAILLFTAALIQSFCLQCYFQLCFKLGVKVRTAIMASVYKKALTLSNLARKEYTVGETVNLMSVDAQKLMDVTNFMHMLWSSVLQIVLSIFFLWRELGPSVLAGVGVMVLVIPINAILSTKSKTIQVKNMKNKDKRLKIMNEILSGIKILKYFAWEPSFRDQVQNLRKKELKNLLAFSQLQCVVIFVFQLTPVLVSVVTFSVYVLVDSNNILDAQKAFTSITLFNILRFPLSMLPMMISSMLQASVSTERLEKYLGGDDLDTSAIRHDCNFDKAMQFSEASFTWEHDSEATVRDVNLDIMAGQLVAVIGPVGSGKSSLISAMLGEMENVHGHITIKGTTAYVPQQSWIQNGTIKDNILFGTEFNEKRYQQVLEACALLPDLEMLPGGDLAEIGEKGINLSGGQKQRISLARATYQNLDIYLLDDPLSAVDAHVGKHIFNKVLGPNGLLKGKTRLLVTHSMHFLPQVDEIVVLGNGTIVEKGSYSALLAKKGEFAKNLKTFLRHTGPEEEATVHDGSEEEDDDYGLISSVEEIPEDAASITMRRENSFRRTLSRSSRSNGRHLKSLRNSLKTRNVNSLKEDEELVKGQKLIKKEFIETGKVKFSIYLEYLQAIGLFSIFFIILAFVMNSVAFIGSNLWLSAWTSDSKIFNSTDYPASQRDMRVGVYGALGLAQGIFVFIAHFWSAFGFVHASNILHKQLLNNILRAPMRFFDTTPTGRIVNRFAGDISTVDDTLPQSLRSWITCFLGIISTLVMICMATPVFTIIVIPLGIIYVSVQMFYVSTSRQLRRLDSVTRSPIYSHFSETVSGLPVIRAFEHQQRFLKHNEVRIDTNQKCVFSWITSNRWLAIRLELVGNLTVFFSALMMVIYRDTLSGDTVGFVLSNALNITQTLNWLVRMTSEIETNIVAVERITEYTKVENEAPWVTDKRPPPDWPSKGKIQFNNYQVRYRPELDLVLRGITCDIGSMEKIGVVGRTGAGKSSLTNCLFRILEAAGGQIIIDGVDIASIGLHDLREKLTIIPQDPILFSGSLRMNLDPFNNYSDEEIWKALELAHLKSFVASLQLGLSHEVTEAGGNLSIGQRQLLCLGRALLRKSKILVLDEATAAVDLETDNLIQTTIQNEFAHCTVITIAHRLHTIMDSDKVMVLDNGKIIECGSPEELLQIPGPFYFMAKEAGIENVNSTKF
Description: as §3, §4

[7] = biological target: T3, MRP3 (Homo sapiens, UniProt O15438); assay: Transport study with MRP3-expressing membrane vesicles; type: in vitro ADME; details: 10 μM, 10 min
T3 construct: purchased GenoMembrane Co., Ltd. (Yokohama, Japan); host or cells: Sf9 insect cells
T3 sequence (O15438 whole entry): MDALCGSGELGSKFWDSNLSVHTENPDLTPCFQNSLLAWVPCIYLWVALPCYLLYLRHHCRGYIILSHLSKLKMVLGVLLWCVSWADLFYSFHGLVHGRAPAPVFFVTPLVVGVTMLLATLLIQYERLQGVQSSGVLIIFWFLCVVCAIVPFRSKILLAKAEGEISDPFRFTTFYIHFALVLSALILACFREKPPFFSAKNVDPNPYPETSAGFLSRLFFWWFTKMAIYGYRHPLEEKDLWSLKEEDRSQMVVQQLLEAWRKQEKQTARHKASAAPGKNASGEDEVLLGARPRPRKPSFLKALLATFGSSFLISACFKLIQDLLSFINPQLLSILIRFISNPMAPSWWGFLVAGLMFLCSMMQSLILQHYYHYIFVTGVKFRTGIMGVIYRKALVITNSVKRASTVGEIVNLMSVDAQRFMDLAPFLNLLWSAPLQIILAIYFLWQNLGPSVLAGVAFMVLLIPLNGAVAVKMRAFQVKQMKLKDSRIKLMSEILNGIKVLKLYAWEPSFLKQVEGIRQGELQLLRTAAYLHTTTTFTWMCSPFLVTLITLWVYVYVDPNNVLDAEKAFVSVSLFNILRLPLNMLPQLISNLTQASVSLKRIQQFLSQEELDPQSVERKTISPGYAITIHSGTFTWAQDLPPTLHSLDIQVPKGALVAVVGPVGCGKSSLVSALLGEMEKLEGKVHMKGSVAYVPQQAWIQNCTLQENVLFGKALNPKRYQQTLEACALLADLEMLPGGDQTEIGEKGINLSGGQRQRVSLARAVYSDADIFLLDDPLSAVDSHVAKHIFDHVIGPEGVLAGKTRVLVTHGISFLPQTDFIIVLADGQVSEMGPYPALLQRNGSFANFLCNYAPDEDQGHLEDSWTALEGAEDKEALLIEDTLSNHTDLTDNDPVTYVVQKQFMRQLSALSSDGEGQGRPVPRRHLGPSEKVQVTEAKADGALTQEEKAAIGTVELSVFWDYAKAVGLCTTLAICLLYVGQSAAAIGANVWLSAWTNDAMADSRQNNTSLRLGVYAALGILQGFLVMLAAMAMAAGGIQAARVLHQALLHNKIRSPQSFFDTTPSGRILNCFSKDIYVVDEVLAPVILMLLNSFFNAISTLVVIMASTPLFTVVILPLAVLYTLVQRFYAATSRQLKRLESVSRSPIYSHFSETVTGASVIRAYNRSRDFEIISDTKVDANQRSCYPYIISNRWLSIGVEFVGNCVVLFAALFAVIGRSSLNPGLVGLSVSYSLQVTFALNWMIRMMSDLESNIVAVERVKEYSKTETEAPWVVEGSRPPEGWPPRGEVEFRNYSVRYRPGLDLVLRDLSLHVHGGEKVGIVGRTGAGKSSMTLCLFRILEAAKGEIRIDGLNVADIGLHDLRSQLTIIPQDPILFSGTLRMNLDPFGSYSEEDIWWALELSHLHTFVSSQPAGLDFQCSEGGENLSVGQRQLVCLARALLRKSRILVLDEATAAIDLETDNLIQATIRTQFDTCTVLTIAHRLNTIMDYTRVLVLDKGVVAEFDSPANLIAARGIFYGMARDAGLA
Description: as §3, §4

[8] = for Autosampler stability (4°C, 24 h), RE / Post-extraction stability (room temperature 3 h), RE / Freeze-thaw stability (−20°C, three cycles), RE / Short-term stability (room temperature 3 h), RE: n = 6; for stability in rat plasma under the test conditions: LQC and HQC samples, short-term, post-extraction, auto-sampler, three freeze/thaw cycles; for Freeze-thaw stability (−20°C, three cycles), RE / Short-term stability (room temperature 3 h), RE: rat plasma; for stability in blood: room temperature for 2 h
Description: The instrument parameters were as follows: ion spray voltage, −4500 V; source temperature, 550 °C; nebulizer gas, 60 psi; heater gas, 60 psi; and curtain gas, 40 psi. […] Data were acquired and processed with the Analyst 1.6.3 software (Applied Biosystems). The standard curve ranges were 1.00 to 1000 ng/mL for EZE, 3.00 to 3000 ng/mL for EZE-Ph, and 1.00 to 1000 ng/mL for EZE-Hy in plasma.
Summary of the stability of ezetimibe and its metabolites in rat plasma (n = 6).

[9] = iv, i.v. 10 mg/kg EZE, CCl4-induced rats
[10] = iv, i.v. 10 mg/kg EZE, control rats
[11] = po, p.o. 10 mg/kg EZE, CCl4-induced rats
[12] = po, p.o. 10 mg/kg EZE, control rats
[13] = intravenous injection of 10 mg/kg EZE
[14] = oral administration of 10 mg/kg EZE
[15] = femoral vein plasma, CCl4-induced rats, read-out: AUC0–t in femoral vein plasma
[16] = femoral vein plasma, control rats, read-out: AUC0–t in femoral vein plasma
[17] = portal vein plasma, CCl4-induced rats, read-out: AUC0–t in portal vein plasma
[18] = portal vein plasma, control rats, read-out: AUC0–t in portal vein plasma
[19] = LQC (EZE/EZE-Ph/EZE-Hy 3.00/9.00/3.00 ng/ml)

O=C(O)[C@H]1O[C@@H](Oc2ccc([C@@H]3[C@@H](CC[C@H](O)c4ccc(F)cc4)C(=O)N3c3ccc(F)cc3)cc2)[C@H](O)[C@@H](O)[C@@H]1O [EZE-Ph, ezetimibe phenoxy β-D-glucuronide]
AUC(0-t) [1, 9]: 40400 ± 1810 ng·h/mL | Cmax [1, 9]: 6970 ± 807 ng/mL | Tmax [1, 9]: 0.45 ± 0.11 h | half-life [1, 9]: 9.58 ± 6.2 h | AUC(0-t) [1, 10]: 2470 ± 418 ng·h/mL | Cmax [1, 10]: 1050 ± 240 ng/mL | Tmax [1, 10]: 0.083 h | half-life [1, 10]: 8.96 ± 2.19 h | AUC(0-t) [1, 11]: 18300 ± 6990 ng·h/mL | Cmax [1, 11]: 1340 ± 585 ng/mL | Tmax [1, 11]: 3 ± 1.41 h | half-life [1, 11]: 8.98 ± 2.1 h | AUC(0-t) [1, 12]: 4170 ± 1140 ng·h/mL | Cmax [1, 12]: 276 ± 69 ng/mL | Tmax [1, 12]: 8.8 ± 4.6 h | half-life [1, 12]: 5.5 ± 0.36 h | AUC0–t, fold higher in CCl4-induced rats than in control rats [1, 13]: 16.4 fold | AUC0–t, fold higher than that of EZE-Hy [1, 13]: approximately 2.5 fold | AUC0–t, fold higher in CCl4-induced rats than in control rats [1, 14]: 4.4 fold | AUC(0-t) [2, 15]: 12500 ng·h/mL | AUC(0-t) [2, 16]: 2580 ng·h/mL | AUC(0-t) [2, 17]: 15900 ng·h/mL | AUC(0-t) [2, 18]: 14800 ng·h/mL | AUC0-t in femoral vein blood, fold increase in CCl4-induced rats vs control [2]: 4.83 fold | AUC0–t portal vein plasma vs femoral vein plasma, fold higher ([2]; CCl4-induced rats): 1.28 fold | AUC0–t portal vein plasma vs femoral vein plasma, fold higher ([2]; control rats): 5.75 fold | decrease of formation of EZE-Ph in CCl4-induced rats compared with control rats ([3]; liver S9, 0.3 μM EZE): 8.80% | decrease of formation of EZE-Ph in CCl4-induced rats compared with control rats ([3]; liver S9, 3 μM EZE): 12.7% | decrease of formation of EZE-Ph in CCl4-induced rats compared with control rats ([3]; liver S9, 30 μM EZE): 27.4% | uptake at 37 °C relative to that at 4 °C ([4]; rat hepatocytes): 50.0 times | +ATP/-ATP ratio ([5]; MDR1 vesicles): 5.64 | +ATP/-ATP ratio ([6]; MRP2 vesicles): 65.5 | +ATP/-ATP ratio ([7]; MRP3 vesicles): 5.71 | Autosampler stability (4°C, 24 h), RE ([8]; HQC (800/2400/800 ng/ml)): 6.0% | Post-extraction stability (room temperature 3 h), RE ([8]; HQC (800/2400/800 ng/ml)): 5.1% | Autosampler stability (4°C, 24 h), RE ([8]; LQC (3.00/9.00/3.00 ng/ml)): 5.3% | Post-extraction stability (room temperature 3 h), RE ([8]; LQC (3.00/9.00/3.00 ng/ml)): 8.8% | stability in rat plasma under the test conditions [8]: stable | Freeze-thaw stability (−20°C, three cycles), RE ([8]; HQC (800/2400/800 ng/ml)): -0.4% | Short-term stability (room temperature 3 h), RE ([8]; HQC (800/2400/800 ng/ml)): 0.3% | Freeze-thaw stability (−20°C, three cycles), RE ([8]; LQC (3.00/9.00/3.00 ng/ml)): 0.8% | Short-term stability (room temperature 3 h), RE [8, 19]: -1.9% | stability in blood [8]: stable

O=C1[C@H](CC[C@H](O)c2ccc(F)cc2)[C@@H](c2ccc(O)cc2)N1c1ccc(F)cc1 [EZE, 1-(4-fluorophenyl)-3(R)-[3-(4-fluorophenyl)-3(S)-hydroxypropyl]-4(S)-(4-hydroxyphenyl)-2-azetidinone, reference compound]
AUC(0-t) [1, 9]: 4610 ± 781 ng·h/mL | half-life [1, 9]: 7.67 ± 3.08 h | Cmax at 5 min [1, 9]: 2950 ± 571 ng/mL | AUC(0-t) [1, 10]: 2180 ± 304 ng·h/mL | half-life [1, 10]: 6.76 ± 3.31 h | Cmax at 5 min [1, 10]: 1560 ± 361 ng/mL | AUC(0-t) [1, 11]: 189 ± 66 ng·h/mL | Cmax [1, 11]: 20.4 ± 8.1 ng/mL | Tmax [1, 11]: 5.2 ± 3.9 h | half-life [1, 11]: 12.3 ± 5.3 h | AUC(0-t) [1, 12]: 17 ± 10 ng·h/mL | Cmax [1, 12]: 2.63 ± 2.68 ng/mL | Tmax [1, 12]: 4.95 ± 4.84 h | half-life [1, 12]: 5.56 ± 3.78 h | AUC0–t, fold higher in CCl4-induced rats than in control rats [1, 13]: 2.1 fold | AUC0–t, fold higher in CCl4-induced rats than in control rats [1, 14]: 11.1 fold | share in plasma relative to the main circulating component EZE-Ph [1, 14]: 0.4% | AUC(0-t) [2, 15]: 191 ng·h/mL | AUC(0-t) [2, 16]: 56.2 ng·h/mL | AUC(0-t) [2, 17]: 352 ng·h/mL | AUC(0-t) [2, 18]: 1850 ng·h/mL | AUC0-t in portal vein, decrease in CCl4-induced rats compared with control rats [2]: 81.0% | AUC0–t portal vein plasma vs femoral vein plasma, fold higher ([2]; CCl4-induced rats): 1.84 fold | AUC0–t portal vein plasma vs femoral vein plasma, fold higher ([2]; control rats): 33.0 fold | time of second absorption peak ([2]; control rats): 9.5 h | increase of residue of EZE in CCl4-induced rats compared with control rats ([3]; liver S9, 0.3 μM EZE): 4.15 fold | increase of residue of EZE in CCl4-induced rats compared with control rats ([3]; liver S9, 3 μM EZE): 5.00 fold | increase of residue of EZE in CCl4-induced rats compared with control rats ([3]; liver S9, 30 μM EZE): 1.40 fold | temperature dependence of uptake into isolated rat hepatocytes ([4]; 37 °C vs 4 °C): independent of temperature | ATP-dependent transport via MDR1 membrane vesicles [5]: No significant ATP-dependent transport | ATP-dependent transport via MRP2 membrane vesicles [6]: No significant ATP-dependent transport | ATP-dependent transport via MRP3 membrane vesicles [7]: No significant ATP-dependent transport | Autosampler stability (4°C, 24 h), RE ([8]; HQC (800/2400/800 ng/ml)): 3.9% | Post-extraction stability (room temperature 3 h), RE ([8]; HQC (800/2400/800 ng/ml)): 3.9% | Autosampler stability (4°C, 24 h), RE ([8]; LQC (3.00/9.00/3.00 ng/ml)): 0.6% | Post-extraction stability (room temperature 3 h), RE ([8]; LQC (3.00/9.00/3.00 ng/ml)): 0.7% | stability in rat plasma under the test conditions [8]: stable | Freeze-thaw stability (−20°C, three cycles), RE ([8]; HQC (800/2400/800 ng/ml)): 1.1% | Short-term stability (room temperature 3 h), RE ([8]; HQC (800/2400/800 ng/ml)): -5.6% | Freeze-thaw stability (−20°C, three cycles), RE ([8]; LQC (3.00/9.00/3.00 ng/ml)): -1.0% | Short-term stability (room temperature 3 h), RE [8, 19]: -11.2% | stability in blood [8]: stable
